Source: PMC10004634 (PLOS ONE, 2023)
Like-named read-outs stand apart in the source and are kept apart here.

Assays:
CLK1 = CLK1 (Homo sapiens, UniProt P49759); experiment: biochemical; design: KINOMEscan scanMAX competition binding, DNA-tagged kinases, qPCR read-out, percent control at 300 nM
LCK = LCK (Homo sapiens, UniProt P06239); experiment: biochemical; design: KINOMEscan scanMAX competition binding, DNA-tagged kinases, qPCR read-out, percent control at 300 nM
GRK7 = GRK7 (Homo sapiens, UniProt Q8WTQ7); experiment: biochemical; design: KINOMEscan scanMAX competition binding, DNA-tagged kinases, qPCR read-out, percent control at 300 nM
FLT3(D835Y) = FLT3(D835Y) (Homo sapiens, UniProt P36888, D835Y); experiment: biochemical; design: KINOMEscan scanMAX competition binding, DNA-tagged kinases, qPCR read-out, percent control at 300 nM
SgK110 = target: T1, SgK110 (Homo sapiens, UniProt P0C264); experiment: biochemical; design: KINOMEscan scanMAX competition binding, DNA-tagged kinases, qPCR read-out, percent control at 300 nM
T1 construct: gene SBK3

GSK3B = GSK3B (Homo sapiens, UniProt P49841); experiment: biochemical; design: KINOMEscan scanMAX competition binding, DNA-tagged kinases, qPCR read-out, percent control at 300 nM
KIT(A829P) = KIT(A829P) (Homo sapiens, UniProt P10721, A829P); experiment: biochemical; design: KINOMEscan scanMAX competition binding, DNA-tagged kinases, qPCR read-out, percent control at 300 nM
GSK3A = GSK3A (Homo sapiens, UniProt P49840); experiment: biochemical; design: KINOMEscan scanMAX competition binding, DNA-tagged kinases, qPCR read-out, percent control at 300 nM
CTK = target: T2, CTK (Homo sapiens, UniProt P42679); experiment: biochemical; design: KINOMEscan scanMAX competition binding, DNA-tagged kinases, qPCR read-out, percent control at 300 nM
T2 construct: gene MATK

ROCK1 = ROCK1 (Homo sapiens, UniProt Q13464); experiment: biochemical; design: KINOMEscan scanMAX competition binding, DNA-tagged kinases, qPCR read-out, percent control at 300 nM
TSSK1B = TSSK1B (Homo sapiens, UniProt Q9BXA7); experiment: biochemical; design: KINOMEscan scanMAX competition binding, DNA-tagged kinases, qPCR read-out, percent control at 300 nM
MAP3K4 = MAP3K4 (Homo sapiens, UniProt Q9Y6R4); experiment: biochemical; design: KINOMEscan scanMAX competition binding, DNA-tagged kinases, qPCR read-out, percent control at 300 nM
YANK1 = target: T3, YANK1 (Homo sapiens, UniProt Q8WU08); experiment: biochemical; design: KINOMEscan scanMAX competition binding, DNA-tagged kinases, qPCR read-out, percent control at 300 nM
T3 construct: gene STK32A

[1] = target: T4, TYK2(JH1domain-catalytic) (Homo sapiens, UniProt P29597); experiment: biochemical; design: KINOMEscan scanMAX competition binding, DNA-tagged kinases, qPCR read-out, percent control at 300 nM
T4 construct: JH1domain-catalytic

CAMK2B = CAMK2B (Homo sapiens, UniProt Q13554); experiment: biochemical; design: KINOMEscan scanMAX competition binding, DNA-tagged kinases, qPCR read-out, percent control at 300 nM
HCK = HCK (Homo sapiens, UniProt P08631); experiment: biochemical; design: KINOMEscan scanMAX competition binding, DNA-tagged kinases, qPCR read-out, percent control at 300 nM
MKK7 = target: T5, MKK7 (Homo sapiens, UniProt O14733); experiment: biochemical; design: KINOMEscan scanMAX competition binding, DNA-tagged kinases, qPCR read-out, percent control at 300 nM
T5 construct: gene MAP2K7

MAK = MAK (Homo sapiens, UniProt P20794); experiment: biochemical; design: KINOMEscan scanMAX competition binding, DNA-tagged kinases, qPCR read-out, percent control at 300 nM
TEC = target: T6, TEC (Homo sapiens, UniProt P42680); experiment: KINOMEscan binding assay; design: purchased Eurofins DiscoverX (KINOMEscan scanMAX service)
T6 sequence (P42680 1-631): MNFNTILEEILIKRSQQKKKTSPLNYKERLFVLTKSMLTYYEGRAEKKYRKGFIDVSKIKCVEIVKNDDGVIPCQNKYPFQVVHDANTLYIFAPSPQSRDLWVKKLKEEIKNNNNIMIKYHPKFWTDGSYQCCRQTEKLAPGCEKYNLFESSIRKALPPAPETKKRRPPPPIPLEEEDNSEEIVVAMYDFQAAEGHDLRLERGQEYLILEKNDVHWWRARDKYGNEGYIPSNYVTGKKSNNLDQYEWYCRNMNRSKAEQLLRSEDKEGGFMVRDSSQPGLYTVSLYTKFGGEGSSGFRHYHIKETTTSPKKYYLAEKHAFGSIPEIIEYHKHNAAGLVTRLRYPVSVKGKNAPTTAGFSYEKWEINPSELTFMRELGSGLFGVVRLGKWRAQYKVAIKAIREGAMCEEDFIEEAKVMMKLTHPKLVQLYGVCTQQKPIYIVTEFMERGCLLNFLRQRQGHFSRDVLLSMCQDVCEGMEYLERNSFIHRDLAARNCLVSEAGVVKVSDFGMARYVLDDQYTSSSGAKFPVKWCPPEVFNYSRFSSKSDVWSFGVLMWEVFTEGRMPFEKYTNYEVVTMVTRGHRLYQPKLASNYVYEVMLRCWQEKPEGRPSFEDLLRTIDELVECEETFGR

[2] = read-out: Percent control / Acalabrutinib
[3] = read-out: Percent control / Ibrutinib
[4] = read-out: Percent control / Tirabrutinib
[5] = read-out: Percent control / Zanubrutinib

MAK, sequence (P20794 whole entry): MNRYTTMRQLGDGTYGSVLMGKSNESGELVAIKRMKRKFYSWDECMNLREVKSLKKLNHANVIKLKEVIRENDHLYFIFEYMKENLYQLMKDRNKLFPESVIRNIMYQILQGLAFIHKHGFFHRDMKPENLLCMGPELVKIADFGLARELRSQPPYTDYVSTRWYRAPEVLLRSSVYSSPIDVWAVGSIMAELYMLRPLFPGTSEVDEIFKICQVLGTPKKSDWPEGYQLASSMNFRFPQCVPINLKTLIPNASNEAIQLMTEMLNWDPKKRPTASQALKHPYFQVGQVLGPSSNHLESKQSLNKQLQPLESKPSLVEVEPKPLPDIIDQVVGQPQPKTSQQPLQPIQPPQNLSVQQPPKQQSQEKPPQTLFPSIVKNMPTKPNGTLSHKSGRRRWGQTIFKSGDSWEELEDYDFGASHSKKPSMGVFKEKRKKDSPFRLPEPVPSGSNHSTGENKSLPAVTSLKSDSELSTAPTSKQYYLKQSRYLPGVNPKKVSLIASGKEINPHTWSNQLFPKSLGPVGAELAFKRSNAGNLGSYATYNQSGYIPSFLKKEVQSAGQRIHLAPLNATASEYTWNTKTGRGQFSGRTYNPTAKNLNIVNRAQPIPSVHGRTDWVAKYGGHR
LCK, sequence (P06239 whole entry): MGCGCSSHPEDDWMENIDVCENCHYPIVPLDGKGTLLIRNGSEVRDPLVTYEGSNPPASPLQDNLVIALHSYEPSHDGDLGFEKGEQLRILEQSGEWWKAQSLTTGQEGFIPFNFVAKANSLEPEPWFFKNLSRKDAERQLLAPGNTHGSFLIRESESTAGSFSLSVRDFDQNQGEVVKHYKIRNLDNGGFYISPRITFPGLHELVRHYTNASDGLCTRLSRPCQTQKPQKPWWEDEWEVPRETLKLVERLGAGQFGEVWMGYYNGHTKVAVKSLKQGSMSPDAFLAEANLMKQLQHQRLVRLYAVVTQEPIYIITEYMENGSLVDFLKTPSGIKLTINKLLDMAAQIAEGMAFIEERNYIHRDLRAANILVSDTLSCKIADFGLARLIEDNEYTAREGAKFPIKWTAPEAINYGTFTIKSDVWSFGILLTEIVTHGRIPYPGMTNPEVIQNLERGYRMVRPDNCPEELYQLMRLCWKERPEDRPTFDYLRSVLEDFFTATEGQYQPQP
T4 sequence (P29597 whole entry): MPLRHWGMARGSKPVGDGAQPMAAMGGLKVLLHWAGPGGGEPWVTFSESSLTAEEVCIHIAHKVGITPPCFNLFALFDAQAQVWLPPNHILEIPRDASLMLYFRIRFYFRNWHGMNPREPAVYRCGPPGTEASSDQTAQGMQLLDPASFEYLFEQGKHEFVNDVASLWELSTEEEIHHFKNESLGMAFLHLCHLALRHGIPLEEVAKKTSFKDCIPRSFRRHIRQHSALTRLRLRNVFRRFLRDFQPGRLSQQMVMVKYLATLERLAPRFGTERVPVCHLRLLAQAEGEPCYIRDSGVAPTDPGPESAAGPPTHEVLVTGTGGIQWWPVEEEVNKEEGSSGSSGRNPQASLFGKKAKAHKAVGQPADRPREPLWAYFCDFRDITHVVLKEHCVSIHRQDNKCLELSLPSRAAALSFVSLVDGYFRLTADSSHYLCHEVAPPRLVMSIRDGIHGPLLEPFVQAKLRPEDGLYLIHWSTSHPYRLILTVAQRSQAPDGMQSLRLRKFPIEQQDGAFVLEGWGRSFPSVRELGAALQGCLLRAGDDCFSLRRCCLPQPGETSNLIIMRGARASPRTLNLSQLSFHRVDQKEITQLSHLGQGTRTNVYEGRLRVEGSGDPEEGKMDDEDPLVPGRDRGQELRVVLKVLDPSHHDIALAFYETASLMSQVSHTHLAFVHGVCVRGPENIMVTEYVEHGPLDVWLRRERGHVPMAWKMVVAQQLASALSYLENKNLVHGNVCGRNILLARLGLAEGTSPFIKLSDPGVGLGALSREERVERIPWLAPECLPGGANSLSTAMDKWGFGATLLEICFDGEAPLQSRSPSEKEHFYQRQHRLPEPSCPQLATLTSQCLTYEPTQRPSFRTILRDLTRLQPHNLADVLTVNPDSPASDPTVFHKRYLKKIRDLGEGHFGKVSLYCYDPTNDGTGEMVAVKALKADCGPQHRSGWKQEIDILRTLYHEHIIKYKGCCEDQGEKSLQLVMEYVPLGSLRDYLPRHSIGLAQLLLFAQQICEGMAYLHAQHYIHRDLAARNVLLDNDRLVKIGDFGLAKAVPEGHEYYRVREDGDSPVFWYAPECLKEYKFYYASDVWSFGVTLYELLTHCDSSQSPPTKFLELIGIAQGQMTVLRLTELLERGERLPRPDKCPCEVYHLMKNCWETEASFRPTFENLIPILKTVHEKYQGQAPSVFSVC
GSK3A, sequence (P49840 whole entry): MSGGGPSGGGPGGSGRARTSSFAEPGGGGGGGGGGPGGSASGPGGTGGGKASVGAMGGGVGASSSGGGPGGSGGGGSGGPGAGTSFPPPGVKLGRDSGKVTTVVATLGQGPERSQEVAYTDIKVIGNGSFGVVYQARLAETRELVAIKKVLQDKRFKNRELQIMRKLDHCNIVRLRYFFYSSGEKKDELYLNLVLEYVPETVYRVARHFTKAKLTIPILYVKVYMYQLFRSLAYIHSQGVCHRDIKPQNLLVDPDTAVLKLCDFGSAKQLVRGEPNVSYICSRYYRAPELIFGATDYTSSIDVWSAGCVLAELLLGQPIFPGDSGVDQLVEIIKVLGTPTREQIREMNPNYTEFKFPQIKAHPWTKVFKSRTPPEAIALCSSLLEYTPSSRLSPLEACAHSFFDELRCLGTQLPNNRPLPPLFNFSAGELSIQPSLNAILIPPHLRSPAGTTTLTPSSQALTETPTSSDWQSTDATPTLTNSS
T2 sequence (P42679 whole entry): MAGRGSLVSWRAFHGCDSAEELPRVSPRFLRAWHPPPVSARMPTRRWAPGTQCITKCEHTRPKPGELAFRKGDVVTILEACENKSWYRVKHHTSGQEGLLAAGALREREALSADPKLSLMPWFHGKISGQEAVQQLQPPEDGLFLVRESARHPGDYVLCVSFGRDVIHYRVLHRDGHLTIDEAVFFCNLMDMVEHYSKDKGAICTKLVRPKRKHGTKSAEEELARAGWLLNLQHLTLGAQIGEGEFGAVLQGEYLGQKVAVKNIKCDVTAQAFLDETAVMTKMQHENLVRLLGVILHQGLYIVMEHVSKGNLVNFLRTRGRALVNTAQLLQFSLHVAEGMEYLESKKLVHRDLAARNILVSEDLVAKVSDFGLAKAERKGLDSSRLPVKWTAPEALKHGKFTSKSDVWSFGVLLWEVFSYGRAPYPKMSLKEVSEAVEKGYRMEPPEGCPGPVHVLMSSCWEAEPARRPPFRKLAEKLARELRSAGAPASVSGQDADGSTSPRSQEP
GSK3B, sequence (P49841 whole entry): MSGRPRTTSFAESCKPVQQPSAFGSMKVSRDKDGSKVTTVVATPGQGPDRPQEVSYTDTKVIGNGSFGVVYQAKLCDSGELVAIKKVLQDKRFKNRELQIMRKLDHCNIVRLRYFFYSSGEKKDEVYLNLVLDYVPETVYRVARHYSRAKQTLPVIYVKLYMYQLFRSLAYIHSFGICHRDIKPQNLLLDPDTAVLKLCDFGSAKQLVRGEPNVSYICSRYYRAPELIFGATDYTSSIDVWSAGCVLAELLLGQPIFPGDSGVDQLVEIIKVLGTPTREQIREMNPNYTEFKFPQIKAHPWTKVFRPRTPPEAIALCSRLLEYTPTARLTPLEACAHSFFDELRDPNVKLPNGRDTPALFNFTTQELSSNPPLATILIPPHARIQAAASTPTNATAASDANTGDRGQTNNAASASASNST
CAMK2B, sequence (Q13554 whole entry): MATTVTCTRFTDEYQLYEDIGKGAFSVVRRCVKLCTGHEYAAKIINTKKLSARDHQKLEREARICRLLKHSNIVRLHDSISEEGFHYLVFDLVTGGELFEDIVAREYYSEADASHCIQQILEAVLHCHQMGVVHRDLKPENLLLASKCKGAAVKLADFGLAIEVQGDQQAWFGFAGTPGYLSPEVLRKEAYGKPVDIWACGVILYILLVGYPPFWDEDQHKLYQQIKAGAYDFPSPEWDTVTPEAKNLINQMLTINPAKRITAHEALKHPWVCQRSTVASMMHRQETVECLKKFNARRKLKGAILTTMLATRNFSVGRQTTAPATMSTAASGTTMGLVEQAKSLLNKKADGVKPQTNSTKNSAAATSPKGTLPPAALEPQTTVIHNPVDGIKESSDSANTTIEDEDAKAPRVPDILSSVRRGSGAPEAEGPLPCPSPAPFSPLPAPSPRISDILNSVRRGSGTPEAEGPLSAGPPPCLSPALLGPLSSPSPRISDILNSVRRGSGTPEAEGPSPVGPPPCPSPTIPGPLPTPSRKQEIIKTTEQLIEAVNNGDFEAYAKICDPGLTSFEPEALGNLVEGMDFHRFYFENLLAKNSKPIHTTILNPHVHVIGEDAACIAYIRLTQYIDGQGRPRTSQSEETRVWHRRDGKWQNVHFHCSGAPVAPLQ
CLK1, sequence (P49759 whole entry): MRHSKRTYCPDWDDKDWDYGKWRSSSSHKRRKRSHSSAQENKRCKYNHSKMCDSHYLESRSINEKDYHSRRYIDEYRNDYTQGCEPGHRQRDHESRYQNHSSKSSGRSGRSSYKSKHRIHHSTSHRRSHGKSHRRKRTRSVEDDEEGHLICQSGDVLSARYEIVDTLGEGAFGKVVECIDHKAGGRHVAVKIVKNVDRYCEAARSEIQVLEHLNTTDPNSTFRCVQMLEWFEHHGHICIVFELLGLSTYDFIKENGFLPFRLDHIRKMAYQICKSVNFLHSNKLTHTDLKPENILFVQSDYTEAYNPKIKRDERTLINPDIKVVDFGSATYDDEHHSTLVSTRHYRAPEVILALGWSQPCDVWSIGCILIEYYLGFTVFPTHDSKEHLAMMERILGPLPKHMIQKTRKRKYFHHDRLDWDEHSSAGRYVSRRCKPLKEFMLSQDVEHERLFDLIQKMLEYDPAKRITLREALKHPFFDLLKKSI

CC#CC(=O)N1CCC[C@H]1c1nc(-c2ccc(C(=O)Nc3ccccn3)cc2)c2c(N)nccn12 [Acalabrutinib]
remaining binding at 0.3 µM (CLK1; [2]): 92% | remaining binding at 0.3 µM (LCK; [2]): 83% | remaining binding at 0.3 µM (GRK7; [2]): 74% | remaining binding at 0.3 µM (FLT3(D835Y); [2]): 82% | remaining binding at 0.3 µM (SgK110; [2]): 94% | remaining binding at 0.3 µM (GSK3B; [2]): 97% | remaining binding at 0.3 µM (KIT(A829P); [2]): 80% | remaining binding at 0.3 µM (GSK3A; [2]): 74% | remaining binding at 0.3 µM (CTK; [2]): 97% | remaining binding at 0.3 µM (ROCK1; [2]): 93% | remaining binding at 0.3 µM (TSSK1B; [2]): 93% | remaining binding at 0.3 µM (MAP3K4; [2]): 78% | remaining binding at 0.3 µM (YANK1; [2]): 97%

C=CC(=O)N1CCC[C@@H](n2nc(-c3ccc(Oc4ccccc4)cc3)c3c(N)ncnc32)C1 [Ibrutinib]
remaining binding at 0.3 µM [1, 3]: 87% | remaining binding at 0.3 µM (CAMK2B; [3]): 90% | remaining binding at 0.3 µM (HCK; [3]): 4.5% | remaining binding at 0.3 µM (MKK7; [3]): 8.1%

CC#CC(=O)N1CC[C@@H](n2c(=O)n(-c3ccc(Oc4ccccc4)cc3)c3c(N)ncnc32)C1 [Tirabrutinib]
remaining binding at 0.3 µM (LCK; [4]): 49% | remaining binding at 0.3 µM (HCK; [4]): 57% | remaining binding at 0.3 µM (MAK; [4]): 94% | inhibition at 0.3 µM (TEC; 300 nM, read-out: inhibition of kinase binding (KINOMEscan)): 92.2%

C=CC(=O)N1CCC([C@@H]2CCNc3c(C(N)=O)c(-c4ccc(Oc5ccccc5)cc4)nn32)CC1 [Zanubrutinib]
remaining binding at 0.3 µM (CLK1; [5]): 90% | remaining binding at 0.3 µM [1, 5]: 82% | remaining binding at 0.3 µM (GRK7; [5]): 100% | remaining binding at 0.3 µM (CAMK2B; [5]): 68% | remaining binding at 0.3 µM (FLT3(D835Y); [5]): 47% | remaining binding at 0.3 µM (SgK110; [5]): 91% | remaining binding at 0.3 µM (GSK3B; [5]): 74% | remaining binding at 0.3 µM (KIT(A829P); [5]): 97% | remaining binding at 0.3 µM (GSK3A; [5]): 98% | remaining binding at 0.3 µM (CTK; [5]): 98% | remaining binding at 0.3 µM (ROCK1; [5]): 92% | remaining binding at 0.3 µM (TSSK1B; [5]): 100% | remaining binding at 0.3 µM (MAK; [5]): 100% | remaining binding at 0.3 µM (MAP3K4; [5]): 75% | remaining binding at 0.3 µM (YANK1; [5]): 75% | remaining binding at 0.3 µM (MKK7; [5]): 80% | Percent control (TEC; kinase TEC (Entrez TEC)): 20%
